Data published in patent US20180016548A1, “ACELLULAR SCAFFOLDS FOR MATURATION OF IPSC-HEPATOCYTES” (Northwestern University, priority 2016, published 2018).

Test system: CYP1A2
Test: CYP1A2 enzyme activity in iPSC-hepatocytes (Luc-ME luminescence)
Format: cell-based, human
Settings: in comparison to primary hepatocytes, 5 μM inducer for 48 h
Experimental: 100 μl of this luciferin medium was added to a 96-well white opaque plate with 100 μl luciferin detection reagent, and the luminescence signal was measured on a Cytation 3 Cell Imaging Multi-Mode Reader (BioTek Inc. Winooski, Vt.). After determining the activity, the amount of cells in each scaffold or sandwich culture was analyzed with Quant-iT™ Pico Green kit following the protocols described above.

SMILES: Cc1ccc2cc3c(ccc4ccccc43)c3c2c1CC3 [3-methylcholanthrene]
- induction of CYP1A2 activity: modest
